In patent US20170008888A1 (KYORIN PHARMACEUTICAL CO., LTD., priority 2014, published 2017):
Where two headings read alike, the source gives them in different places.

Experiments:
cynomolgus monkey PBMCs = experiment: Cytokine response by primary cynomolgus monkey PBMCs stimulated with LPS; type: cell-based, cynomolgus monkey (M. fascicularis); details: Macaca fascicularis, PBMC, 100 ng/ml LPS 20 h
Method: Freshly isolated cynomolgus monkey (M. fascicularis) peripheral blood mononuclear cells (PBMCs) were purchased from SNBL (Everett, Wash.). Cells were seeded at 1.8e6 cells/ml in RPMI 1640 (Life Technologies, Grand Island, N.Y.) containing 10% (v/v) charcoal-dextran treated, heat inactivated FBS (Omega Scientific, Tarzana, Calif.), 0.05 mM 2-Mercaptoethanol (Sigma-Aldrich, St. Louis, Mo.), and 1×Pen/Strep Amphotericin B (Lonza, Allendale, N.J.). Cells were pre-treated with 0.1% DMSO or with a test compound for 1 h at 37° C. in a humidified atmosphere at 5% CO2. Compounds were tested at 10 μM down by ⅕ in a 4-point serial dilution series. Cells were then stimulated with 100 ng/ml LPS from E. coli 0111:B4 (EMD Millipore, Billerica, Mass.) for 20 h at 37° C. in a humidified atmosphere at 5% CO2. Supernatant was collected and analyzed using the Milliplex Map Non-human Primate Cytokine Magnetic Bead Panel Kit (EMD Millipore) as per manufacturer's protocols. Magnetic beads were read on the Bio-Plex MAGPIX multiplex reader instrument using the accompanying xPONENT 4.2 acquisition software (Bio-Rad Laboratories, Hercules, Calif.). Data were analyzed via the Bio-Plex Manager software v6.1 (Bio-Rad Laboratories).

[1] = test system: primary human corneal epithelial cells; experiment: Cytokine response in primary human corneal epithelial cells stimulated with IFNγ, IL-1β or IL-17A; type: cell-based; details: Corneal epithelial cell, 24 h, 5 μM compound
Method: Primary corneal epithelial cells were obtained from Life Technologies (Carlsbad, Calif.) and maintained in Keratinocyte-SFM media supplemented with EGF and bovine pituitary extract (Life Technologies). Cells were seeded at 1e5 cells/ml and incubated at 37° C. in a humidified atmosphere at 5% CO2 overnight to adhere. Cells were supplement-starved overnight in unsupplemented K-SFM media containing 0.5% BSA then treated with compound for 1 h at 37° C. in a humidified atmosphere at 5% CO2. DMSO at a final concentration of 0.1% served as the non-inhibited control. Cells were stimulated with 20 ng/ml of human recombinant IFNγ (R & D Systems, Minneapolis, Minn.), IL-1β (R & D Systems), or IL-17A (eBioscience, San Diego, Calif.) for 24 h. Supernatant was then collected and analyzed for cytokine concentrations using the Bio-Plex Pro Human Cytokine 17-Plex Panel (Bio-Rad Laboratories, Hercules, Calif.) according to the manufacturer's instructions. Magnetic beads were measured on the Bio-Plex MAGPIX multiplex reader instrument using the accompanying xPONENT 4.2 acquisition software (Bio-Rad Laboratories). Data were analyzed via the Bio-Plex Manager software v6.1 (Bio-Rad Laboratories).
Percent inhibition of cytokines in culture supernatant during 5 μM compound treatment of primary corneal epithelial cells. Shown below are data from a representative experiment.

[2] = target: T1, panel of 40 bromodomain-containing proteins (Homo sapiens, UniProt Q09472); experiment: Bromodomain binding assay (T7 phage, qPCR): further proteins of the panel; details: EP300
T1 construct: T7 phage strains displaying bromodomains were grown in parallel; made in house; host or cells: E. coli host derived from BL21, infected with T7 phage
T1 sequence (Q09472 1045-1161): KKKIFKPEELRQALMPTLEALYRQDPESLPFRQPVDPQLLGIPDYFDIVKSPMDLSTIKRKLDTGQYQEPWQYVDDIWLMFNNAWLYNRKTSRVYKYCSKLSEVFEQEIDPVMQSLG
Method: (§1) T7 phage strains displaying bromodomains were grown in parallel in 24-well blocks in an E. coli host derived from the BL21 strain. E. coli were grown to log-phase and infected with T7 phage from a frozen stock (multiplicity of infection=0.4) and incubated with shaking at 32° C. until lysis (90-150 minutes). The lysates were centrifuged (5,000×g) and filtered (0.2 μm) to remove cell debris. […] The liganded beads were blocked with excess biotin and washed with blocking buffer (SeaBlock (Pierce), 1% BSA, 0.05 Tween 20, 1 mM DTT) to remove unbound ligand and to reduce non-specific phage binding. […] Test compounds (T62 and 46) were prepared as 1000× stocks in 100% DMSO and subsequently diluted 1:10 in monoethylene glycol (MEG) to create stocks at 100× the screening concentration (resulting stock solution is 10% DMSO/90% MEG). The compounds were then diluted directly into the assays such that the final concentration of DMSO and MEG were 0.1% and 0.9%, respectively. All reactions were performed in polystyrene 96-well plates in a final volume of 0.135 ml. […] The bromodomain concentration in the eluates was measured by qPCR. Compounds were assayed for binding activity against a panel of 40 bromodomain-containing proteins.

[3] = target: T2, panel of 40 bromodomain-containing proteins (Homo sapiens, UniProt Q92793); experiment: as above; details: CREBBP
T2 construct: T7 phage strains displaying bromodomains were grown in parallel; made in house; host or cells: E. coli host derived from BL21, infected with T7 phage
T2 sequence (Q92793 1081-1197): as the sequence (Q09472 1045-1161) above, with K1R, S51N, I77V, Y97F, S102A counted along it
Method: as §1

ATAD2A = target: T3, ATAD2A (Homo sapiens, UniProt Q6PL18); experiment: Bromodomain binding assay: ATAD2A
T3 construct: T7 phage strains displaying bromodomains were grown in parallel; made in house; host or cells: E. coli host derived from BL21, infected with T7 phage
T3 sequence (Q6PL18 980-1092 limits assumed): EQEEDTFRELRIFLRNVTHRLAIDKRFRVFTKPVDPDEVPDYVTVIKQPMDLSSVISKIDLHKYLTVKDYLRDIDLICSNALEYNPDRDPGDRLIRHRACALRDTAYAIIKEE
Method: as §1

BRD1 = target: T4, BRD1 (Homo sapiens, UniProt O95696); experiment: Bromodomain binding assay: BRD1
T4 construct: T7 phage strains displaying bromodomains were grown in parallel; made in house; host or cells: E. coli host derived from BL21, infected with T7 phage
T4 sequence (O95696 562-666 limits assumed, species assumed): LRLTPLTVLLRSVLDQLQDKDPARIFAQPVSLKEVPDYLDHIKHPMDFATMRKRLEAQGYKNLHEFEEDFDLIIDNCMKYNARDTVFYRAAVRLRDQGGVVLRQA
Method: as §1

CECR2 = target: T5, CECR2 (Homo sapiens, UniProt Q9BXF3); experiment: Bromodomain binding assay: CECR2
T5 construct: T7 phage strains displaying bromodomains were grown in parallel; made in house; host or cells: E. coli host derived from BL21, infected with T7 phage
T5 sequence (Q9BXF3 434-538 limits assumed, species assumed): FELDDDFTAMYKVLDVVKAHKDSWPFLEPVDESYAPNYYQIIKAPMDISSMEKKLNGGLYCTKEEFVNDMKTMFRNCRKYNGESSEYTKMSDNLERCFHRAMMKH
Method: as §1

[4] = read-out: EC50 (μM) under LPS stimulation, G-CSF
[5] = read-out: EC50 (μM) under LPS stimulation, GM-CSF
[6] = read-out: EC50 (μM) under LPS stimulation, IFN-γ
[7] = read-out: EC50 (μM) under LPS stimulation, IL-1ra
[8] = read-out: EC50 (μM) under LPS stimulation, IL-1β
[9] = read-out: EC50 (μM) under LPS stimulation, IL-4
[10] = read-out: EC50 (μM) under LPS stimulation, IL-6
[11] = read-out: EC50 (μM) under LPS stimulation, IL-8
[12] = read-out: EC50 (μM) under LPS stimulation, IL-10
[13] = read-out: EC50 (μM) under LPS stimulation, IL-12/IL-23 (p40)
[14] = read-out: EC50 (μM) under LPS stimulation, MCP-1
[15] = read-out: EC50 (μM) under LPS stimulation, MIP-1α
[16] = read-out: EC50 (μM) under LPS stimulation, MIP-1β
[17] = read-out: EC50 (μM) under LPS stimulation, TNF-α
[18] = read-out: EC50 (μM) under LPS stimulation, VEGF
[19] = read-out: EC50 (μM) under LPS stimulation, sCD40L
[20] = +20 ng/ml IFNγ, read-out: Percent inhibition of cytokine relative to DMSO controls, G-CSF
[21] = +20 ng/ml IFNγ, read-out: Percent inhibition of cytokine relative to DMSO controls, GM-CSF
[22] = +20 ng/ml IFNγ, read-out: Percent inhibition of cytokine relative to DMSO controls, IL-6
[23] = +20 ng/ml IFNγ, read-out: Percent inhibition of cytokine relative to DMSO controls, MCP-1
[24] = +20 ng/ml IL-1β, read-out: Percent inhibition of cytokine relative to DMSO controls, G-CSF
[25] = +20 ng/ml IL-1β, read-out: Percent inhibition of cytokine relative to DMSO controls, GM-CSF
[26] = +20 ng/ml IL-1β, read-out: Percent inhibition of cytokine relative to DMSO controls, IL-6
[27] = +20 ng/ml IL-1β, read-out: Percent inhibition of cytokine relative to DMSO controls, MCP-1
[28] = +20 ng/ml IL-17A, read-out: Percent inhibition of cytokine relative to DMSO controls, G-CSF
[29] = +20 ng/ml IL-17A, read-out: Percent inhibition of cytokine relative to DMSO controls, GM-CSF
[30] = +20 ng/ml IL-17A, read-out: Percent inhibition of cytokine relative to DMSO controls, IL-6
[31] = +20 ng/ml IL-17A, read-out: Percent inhibition of cytokine relative to DMSO controls, MCP-1

| Structure (SMILES) | EC50 (cynomolgus monkey PBMCs; [4]) [µM] | EC50 (cynomolgus monkey PBMCs; [5]) [µM] | EC50 (cynomolgus monkey PBMCs; [6]) [µM] | EC50 (cynomolgus monkey PBMCs; [7]) [µM] | EC50 (cynomolgus monkey PBMCs; [8]) [µM] | EC50 (cynomolgus monkey PBMCs; [9]) [µM] | EC50 (cynomolgus monkey PBMCs; [10]) [µM] | EC50 (cynomolgus monkey PBMCs; [11]) [µM] | EC50 (cynomolgus monkey PBMCs; [12]) [µM] | EC50 (cynomolgus monkey PBMCs; [13]) [µM] | EC50 (cynomolgus monkey PBMCs; [14]) [µM] | EC50 (cynomolgus monkey PBMCs; [15]) [µM] | EC50 (cynomolgus monkey PBMCs; [16]) [µM] | EC50 (cynomolgus monkey PBMCs; [17]) [µM] | EC50 (cynomolgus monkey PBMCs; [18]) [µM] | EC50 (cynomolgus monkey PBMCs; [19]) [µM] | inhibition at 5 µM [1, 20] [%] | inhibition at 5 µM [1, 21] [%] | inhibition at 5 µM [1, 22] [%] | inhibition at 5 µM [1, 23] [%] | other results |
| --- | --- | --- | --- | --- | --- | --- | --- | --- | --- | --- | --- | --- | --- | --- | --- | --- | --- | --- | --- | --- | --- |
| CCOc1cc(C(=O)N2CCCN(C)CC2)ccc1Nc1cc2c(cn1)N(C)C(=O)c1ccccc1N2C [Compound 8] | 0.58 | 0.5 | 0.55 | 0.71 | 0.47 | 1.29 | 1.42 | 0.98 | 0.52 | 0.75 | 0.32 | 1.63 | 4.45 | 0.63 | 0.9 | 1.14 |  |  |  |  |  |
| CCOc1cc(C(=O)N[C@H]2CC[C@H](O)CC2)ccc1Nc1cc2c(cn1)N(C)C(=O)c1ccccc1N2C [Compound T62] |  |  |  |  |  |  |  |  |  |  |  |  |  |  |  |  | 28 | 25.4 | 67.9 | 89.5 | inhibition at 5 µM [1, 24]: 89.3%; inhibition at 5 µM [1, 25]: 97.1%; inhibition at 5 µM [1, 26]: 88.7%; inhibition at 5 µM [1, 27]: 58%; inhibition at 5 µM [1, 28]: 86.4%; inhibition at 5 µM [1, 29]: 89.7%; inhibition at 5 µM [1, 30]: 89.6%; inhibition at 5 µM [1, 31]: 36%; Kd [2]: 1100 nM; Kd [3]: 1200 nM; Kd (ATAD2A): > 20000 nM; Kd (BRD1): > 20000 nM; Kd (CECR2): > 20000 nM |
| CCOc1cc(C(=O)N2CCC(N3CCCC3)CC2)ccc1Nc1cc2c(cn1)N(C)C(=O)c1ccccc1N2C [Compound 46, 3-(2-Ethoxy-4-(4-(pyrrolidin-1-yl)piperidine-1-carbonyl)phenylamino)-5,11-dimethyl-5H-benzo[e]pyrido[3,4-b][1,4]diazepin-10(11H)-one] | 0.26 | 0.18 | 0.28 | 0.32 | 0.2 | 0.48 | 0.6 | 0.35 | 0.31 | 0.36 | 0.13 | 0.78 | 2.2 | 0.24 | 0.45 | 0.41 | 42.1 | 30.4 | 84.4 | 93.4 | inhibition at 5 µM [1, 24]: 86.3%; inhibition at 5 µM [1, 25]: 97%; inhibition at 5 µM [1, 26]: 92.2%; inhibition at 5 µM [1, 27]: 52.1%; inhibition at 5 µM [1, 28]: 90.3%; inhibition at 5 µM [1, 29]: 92.5%; inhibition at 5 µM [1, 30]: 94.7%; inhibition at 5 µM [1, 31]: 42.7%; Kd [2]: 7500 nM; Kd [3]: 3300 nM; Kd (ATAD2A): > 20000 nM; Kd (BRD1): > 20000 nM; Kd (CECR2): > 20000 nM |
